Data on 18 compounds can be found in US20130245355A1, “3-HETARYL-SUBSTITUTED PYRROLO[2,3 B]PYRIDINE DERIVATIVES AS PDK1 INHIBITORS” (MERCK PATENT GMBH, priority 2010, published 2013).

The target in test [1] is T1, PDK1 (Homo sapiens, UniProt O15530).
T1 construct: His6 (N)
T1 sequence (O15530 51-556 limits assumed): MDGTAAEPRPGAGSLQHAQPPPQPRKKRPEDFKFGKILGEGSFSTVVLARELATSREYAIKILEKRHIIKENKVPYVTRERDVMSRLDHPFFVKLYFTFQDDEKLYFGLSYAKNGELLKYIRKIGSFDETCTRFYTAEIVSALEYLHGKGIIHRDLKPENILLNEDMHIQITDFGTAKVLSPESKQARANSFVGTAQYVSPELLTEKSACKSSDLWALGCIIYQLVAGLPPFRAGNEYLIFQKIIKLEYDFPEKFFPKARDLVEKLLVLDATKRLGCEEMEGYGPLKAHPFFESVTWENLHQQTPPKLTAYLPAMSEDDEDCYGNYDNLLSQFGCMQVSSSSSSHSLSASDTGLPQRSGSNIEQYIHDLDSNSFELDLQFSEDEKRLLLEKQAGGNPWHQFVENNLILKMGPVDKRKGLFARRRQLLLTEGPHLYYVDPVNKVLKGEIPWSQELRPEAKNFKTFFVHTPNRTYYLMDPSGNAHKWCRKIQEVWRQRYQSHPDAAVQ
As to the kind of experiment: Test for the inhibition of PDK1 (flashplate, 33P-ATP). The note with it: His6-PDK1 (1-50) 3.4 nM, 4 μM ATP, 30° C., 60 min; read-out: IC50 [PDK1] biochemical. The essentials:
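His6-PDK1 (1-50) (3.4 nM) with biotinylated peptide substrate (400 nM) and 4 μM ATP plus ^33P-ATP, 60 min at 30° C; incorporated radioactivity counted. Blank from 100 nM staurosporin subtracted, activity expressed as % of compound-free control, IC50 derived from dilution series.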

Test [2] concerns the target T2, PDK1 (Homo sapiens, UniProt O15530).
T2 construct: endogenous in cells; host or cells: PC3 cells
T2 sequence (O15530 1-556): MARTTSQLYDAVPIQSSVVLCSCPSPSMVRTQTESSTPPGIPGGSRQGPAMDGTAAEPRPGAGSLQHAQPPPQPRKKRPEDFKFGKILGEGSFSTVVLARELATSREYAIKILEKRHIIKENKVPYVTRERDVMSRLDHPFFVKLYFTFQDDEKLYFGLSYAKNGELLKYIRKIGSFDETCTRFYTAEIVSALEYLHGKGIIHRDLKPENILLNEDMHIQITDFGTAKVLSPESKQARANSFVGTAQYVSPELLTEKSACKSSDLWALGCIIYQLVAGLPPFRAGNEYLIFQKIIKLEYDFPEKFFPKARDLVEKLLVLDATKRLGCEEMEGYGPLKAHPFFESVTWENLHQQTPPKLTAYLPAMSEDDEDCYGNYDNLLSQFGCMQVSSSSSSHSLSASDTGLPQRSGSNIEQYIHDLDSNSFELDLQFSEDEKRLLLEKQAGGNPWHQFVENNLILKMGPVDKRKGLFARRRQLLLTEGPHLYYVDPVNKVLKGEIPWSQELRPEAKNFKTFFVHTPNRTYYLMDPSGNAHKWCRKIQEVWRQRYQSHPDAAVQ
As to the kind of experiment: Cellular testing of PDK1 kinase inhibitors in PC3 cells (Luminex, phospho-T308-PKB). The test is classed as cell-based. As to conditions: 30 min, serum-free. The essentials: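 PC3 cells were treated 30 min serum-free with 7-concentration compound series, lysed, and phospho-T308-PKB measured by Luminex bead assay (anti-total PKB capture, phospho-T308 detection). Blank was 10 μM staurosporine; maximum was 0.3% DMSO; IC50 derived from percent of control.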

In the case of `Cn1cc(-c2cnc3[nH]cc(-c4cc(C(O)(c5ccnnc5)C(C)(C)C)on4)c3c2)cn1` (stereo not drawn) [A100, 2,2-dimethyl-1-{3-[5-(1-methyl-1H-pyrazol-4-yl)-1H-pyrrolo-[2,3-b]pyridin-3-yl]isoxazol-5-yl}-1-pyridazin-4-ylpropan-1-ol], the IC50 at PDK1 [1] lay within 0.5 to 1000 nM; against PDK1 [2], 1000 to 10000 nM.
For `Cn1cc(-c2cnc3[nH]cc(-c4cc(CO)on4)c3c2)cn1` [A105], the half-maximal inhibitory concentration (IC50) on PDK1 [1] lay in the range of 0.5 to 1000 nM; against PDK1 [2], 1000 to 10000 nM.
On the same counts, the results for `Cn1cc(-c2cnc3[nH]cc(-c4cc(C(O)c5ccccc5)nn4CCO)c3c2)cn1` (stereo not drawn) [A107] are 0.5 to 1000 nM and 1000 to 10000 nM.
For `Cn1cc(-c2cnc3[nH]cc(-c4nnc(C5(c6cccnc6)CCCC5)o4)c3c2)cn1` [A110], in that order: 0.5 to 1000 nM and 1000 to 10000 nM.
For `Cn1cc(-c2cnc3[nH]cc(-c4nnc([C@H](N)c5ccccc5Cl)o4)c3c2)cn1` [A112], in that order: 0.5 to 1000 nM and 0.5 to 1000 nM.
Take `Cn1cc(-c2cnc3[nH]cc(-c4nnc([C@@H](N)c5ccccc5Cl)o4)c3c2)cn1` [A113]: the results for the half-inhibitory concentration (IC50) at PDK1 [1] and against PDK1 [2] were 0.5 to 1000 nM and 1000 to 10000 nM, respectively.
Turning to `CN[C@@H](c1ccccc1)c1nnc(-c2c[nH]c3ncc(-c4cnn(C)c4)cc23)o1` [A116], the IC50 lay in the range of 0.5 to 1000 nM at PDK1 [1] and 1000 to 10000 nM against PDK1 [2].
With `Cn1cc(-c2cnc3[nH]cc(-c4nnc(C(N)c5cc(F)cc(F)c5)o4)c3c2)cn1` (stereo not drawn) [A117], the IC50 on PDK1 [1] and at PDK1 [2] was 1000 to 10000 nM in each case.
As to `Cn1cc(-c2cnc3[nH]cc(-c4nnc(C(N)c5ccccc5Cl)o4)c3c2)cn1` (stereo not drawn) [A118], the IC50 at PDK1 [1] and against PDK1 [2] was 0.5 to 1000 nM throughout.
For `Cn1cc(-c2cnc3[nH]cc(-c4nnc(C5(c6ccccn6)CC5)o4)c3c2)cn1` [A120], the IC50 on PDK1 [1] and at PDK1 [2] was 1000 to 10000 nM in each case.
Turning to `Cn1cc(-c2cnc3[nH]cc(-c4n[nH]c(C5(c6ccc(Cl)nc6)CC5)n4)c3c2)cn1` [A122, 3-{5-[1-(6-chloropyridin-3-yl)cyclopropyl]-1H-1,2,4-triazol-3-yl}-5-(1-methyl-1H-pyrazol-4-yl)-1H-pyrrolo[2,3-b]pyridine], the half-inhibitory concentration (IC50) on PDK1 [1] and against PDK1 [2] was 1000 to 10000 nM each time.
On to `Cn1cc(-c2cnc3[nH]cc(-c4nnc(C5(c6ccc(Cl)nc6)CC5)o4)c3c2)cn1` [A123, 3-{5-[1-(6-chloropyridin-3-yl)cyclopropyl]-1,3,4-oxadiazol-2-yl}-5-(1-methyl-1H-pyrazol-4-yl)-1H-pyrrolo[2,3-b]pyridine], for which the IC50 at PDK1 [1] and on PDK1 [2] was 1000 to 10000 nM in each case.
For `Cn1cc(-c2cnc3[nH]cc(-c4nnc(C5(c6cccnc6)CC5)o4)c3c2)cn1` [A124, 5-(1-methyl-1H-pyrazol-4-yl)-3-[5-(1-pyridin-3-ylcyclopropyl)-1,3,4-oxadiazol-2-yl]-1H-pyrrolo[2,3-b]pyridine], the IC50 on PDK1 [1] fell in the range of 0.5 to 1000 nM; against PDK1 [2] it was 1000 to 10000 nM.
For `Cn1cc(-c2cnc3[nH]cc(-c4n[nH]c(C5(c6cccnc6)CC5)n4)c3c2)cn1` [A125, 5-(1-methyl-1H-pyrazol-4-yl)-3-[5-(1-pyridin-3-ylcyclopropyl)-1H-1,2,4-triazol-3-yl]-1H-pyrrolo[2,3-b]pyridine], in that order: 0.5 to 1000 nM and 1000 to 10000 nM.
On the same counts, the results for `Cn1cc(-c2cnc3[nH]cc(-c4n[nH]c(C5(c6ccc(=O)[nH]c6)CC5)n4)c3c2)cn1` [A126, 5-(1-{5-[5-(1-methyl-1H-pyrazol-4-yl)-1H-pyrrolo[2,3-b]pyridin-3-yl]-2H-1,2,4-triazol-3-yl}cyclopropyl)-1H-pyridin-2-one] are 0.5 to 1000 nM and 1000 to 10000 nM.
As for `COc1ccc(C2(c3nc(-c4c[nH]c5ncc(-c6cnn(C)c6)cc45)n[nH]3)CC2)cn1` [A127, 3-{5-[1-(6-methoxypyridin-3-yl)cyclopropyl]-1H-1,2,4-triazol-3-yl}-5-(1-methyl-1H-pyrazol-4-yl)-1H-pyrrolo[2,3-b]pyridine], the IC50 on PDK1 [1] and on PDK1 [2] was 1000 to 10000 nM in each case.
For `COC(=O)c1ccc(C(O)c2nnc(-c3c[nH]c4ncc(-c5cnn(C)c5)cc34)o2)c(Cl)c1` (stereo not drawn) [A128, methyl 3-chloro-4-(hydroxy-{5-[5-(1-methyl-1H-pyrazol-4-yl)-1H-pyrrolo[2,3-b]-pyridin-3-yl]-1,3,4-oxadiazol-2-yl}methyl)benzoate], the IC50 at PDK1 [1] and at PDK1 [2] was 1000 to 10000 nM throughout.
With `Cn1cc(-c2cnc3[nH]cc(-c4nnc(C(C)(O)c5ccccc5Cl)o4)c3c2)cn1` (stereo not drawn) [A132, I-(2-chlorophenyl)-1-{5-[5-(1-methyl-1H-pyrazol-4-yl)-1H-pyrrolo[2,3-b]pyridin-3-yl]-1,3,4-oxadiazol-2-yl}ethanol], the results for the IC50 on PDK1 [1] and at PDK1 [2] were 0.5 to 1000 nM and 1000 to 10000 nM, respectively.

By IC50 is commonly meant the point on the concentration scale where inhibition reaches its midpoint.
